The term pIC50 denotes the IC50 on a negative log10 scale, so that one unit is a factor of ten. The term half-life denotes how long it takes for the measured level to halve.

This is an account of results in ChEMBL document CHEMBL5137082, “Discovery of a Novel Vascular Disrupting Agent Inhibiting Tubulin Polymerization and HDACs with Potent Antitumor Effects” (J Med Chem, 2022).

pIC50: −log10 of the molar value. The source made the active and inactive calls. The rule behind the calls is not given here.

The test system of data set [1] is HepG2. Description: Induction of apoptosis in human HepG2 cells assessed as necrotic cells at 7.5 nM incubated for 48 hrs by Annexin-V/PI-staining based flow cytometry (reference value: 1.43 +/- 0.26%). The class given is functional. (In flow cytometry, cells or beads pass a laser one at a time.)
A further data set deals with Tubulin. Put plainly: Inhibition of tubulin polymerization (unknown origin) preincubated for 15 mins followed by PEG and GTP addition measured after 30 mins by spectrophotometric method. The class given is protein-complex assay, Homo sapiens.
In data set [2] the test system is HepG2. Description: Induction of apoptosis in human HepG2 cells assessed as viable cells at 15 nM incubated for 48 hrs by Annexin-V/PI-staining based flow cytometry (reference value: 91.44 +/- 0.74%). The class given is functional. Conditions: read-out: Activity.
The test system of data set [3] is HepG2. Put plainly: Induction of apoptosis in human HepG2 cells assessed as viable cells at 7.5 nM incubated for 48 hrs by Annexin-V/PI-staining based flow cytometry (reference value: 91.44 +/- 0.74%). The class given is functional. To be noted: read-out: Activity.
The nature of data set [4]: Metabolic stability in mouse liver microsomes assessed as half life at 1 uM in presence of NADPH measured up to 60 mins by LC-MS/MS analysis. The class given is ADME, Microsome. Background: Microsomes from liver hold many membrane-bound enzymes, among them those of drug oxidation.
The next data set concerns Mus musculus. Put plainly: In vivo inhibition of HDAC in ICR mouse allografted with mouse H22 cells assessed as upregulation of acetyl-alpha tubulin expression at 20 mg/kg, iv qd administered for 21 days measured after 24 hrs by Western blot analysis. Type of data set: functional, organism-based. To be noted: time 21.0 day. Background: A western blot detects proteins with antibodies after separation by electrophoresis.

The next data set addresses Histone deacetylase 1 (Homo sapiens, UniProt Q13547). Description: Inhibition of HDAC1 in human HepG2 cells assessed as increase in level of acetyl histone H3substrate incubated for 24 hrs by chemiluminescence based Western blotting analysis. Type of data set: cell-based. To be noted: dose 0.03-0.3 µM.
Data set [5] can be described thus: Metabolic stability in mouse plasma assessed as compound remaining at 40 uM measured after 2 hrs by LC-MS/MS analysis (reference value: 100%). The class given is ADME, cell-free.

Chain of Histone deacetylase 1 (Q13547 whole entry): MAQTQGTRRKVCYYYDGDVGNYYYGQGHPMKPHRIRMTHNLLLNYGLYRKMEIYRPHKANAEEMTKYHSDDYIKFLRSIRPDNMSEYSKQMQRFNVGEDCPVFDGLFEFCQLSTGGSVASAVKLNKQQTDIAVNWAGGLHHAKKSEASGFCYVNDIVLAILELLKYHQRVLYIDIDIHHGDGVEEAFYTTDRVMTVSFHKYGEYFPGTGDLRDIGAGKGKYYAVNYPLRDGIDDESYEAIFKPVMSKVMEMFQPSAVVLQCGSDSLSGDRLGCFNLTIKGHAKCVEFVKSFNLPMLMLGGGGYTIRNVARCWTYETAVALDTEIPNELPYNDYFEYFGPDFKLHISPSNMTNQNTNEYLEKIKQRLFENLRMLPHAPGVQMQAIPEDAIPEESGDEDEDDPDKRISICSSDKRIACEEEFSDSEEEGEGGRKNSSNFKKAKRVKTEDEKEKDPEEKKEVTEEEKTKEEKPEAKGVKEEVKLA

As to `COc1ccc(CNC(=O)c2cc(F)ccc2N2CCOCC2)cc1/C=C/C(=O)NO`, the Activity with HepG2 [1] is given as 1.33%. Also, at Tubulin, the negative logarithm of the IC50 (pIC50) is 5.39. In the data set on HepG2 [2], the viability at 0.015 µM was found to be 65.7%. Further, the viability at 0.0075 µM in the data set on HepG2 [3] turned out to be 71.6%. The half-life at 1 µM in data set [4] came out at 50.3 min. Also, the inhibition entry in the data set with Mus musculus and at Histone deacetylase 1 was “Active” in each case. Besides, in data set [5], the Stability came to 30.7%.
